For one data set, the target named is mushroom tyrosinase (Agaricus bisporus, UniProt C7FF04). In words: Inhibition of mushroom tyrosinase activity (L-DOPA, OD475). Format: biochemical. The conditions noted are these: read-out: tyrosinase inhibition rate. On the procedure:
L-DOPA solution (5 mM) and tyrosinase (400 U/mL) (Sigma-Aldrich, St. Louis, MO, USA) were prepared in PBS buffer (pH 7.4) (Qingdao Hope Bio-Technology Co., Ltd., Qingdao, China). A reaction mixture was prepared by combining 240 μL of carboxylic acid at various concentrations, 360 μL of L-DOPA solution, and 120 μL of tyrosinase. […] Deionized water was used as the control.

In data set [1] the target is T1, tyrosinase (Agaricus bisporus, UniProt C7FF04).
T1 construct: purchased Sigma-Aldrich
In words: Kinetic analysis of tyrosinase (Lineweaver–Burk). Format: biochemical, mushroom. The conditions noted are these: for inhibition mechanism: Lineweaver–Burk double-reciprocal plots. Here is the method: L-DOPA solutions at various concentrations (0.5, 1, 2, and 4 mM) were prepared in PBS buffer (pH 7.4) and mixed with carboxylic acids at different concentrations and tyrosinase (final concentration of 60 U/mL). […] The reaction rates were calculated based on the OD values. To analyze the inhibition types of the four carboxylic acids on tyrosinase, double-reciprocal Lineweaver–Burk plots were constructed with 1/v (reaction rate) as the y-axis and 1/[S] (substrate concentration) as the x-axis. The maximum reaction velocity (Vmax) and Michaelis constant (Km) were determined using GraphPad Prism 10 (GraphPad Software, Massachusetts, USA).

Data set [2] is described as follows: L-DOPA auto-oxidation analysis. The conditions noted are these: for L-DOPA auto-oxidation inhibition rate: 1.5 mM; for IC50: 37 °C, 12 h, calculated using SPSS, read-out: IC50 for L-DOPA auto-oxidation inhibition. Here is the method: A 5 mM L-DOPA solution was prepared in PBS buffer (pH 7.4). Subsequently, 240 μL of carboxylic acid solution, 360 μL of L-DOPA solution, and 120 μL of PBS buffer were sequentially mixed. The mixture was then incubated at 37 °C for 12 h. […] Deionized water was used as the control. The inhibition of L-DOPA auto-oxidation was calculated using the same method as the melanin content analysis.

Data set [3] in a line: Cell viability of B16-F10 by MTT. The conditions noted are these: mouse, B16-F10 cells. Format: cell-based. Here is the method: B16-F10 cells were seeded in 96-well plates at a density of 1 × 10^5 cells/mL and cultured at 37 °C with 5% CO2 for 24 h. Subsequently, various concentrations of carboxylic acids were added, and the cells were further incubated for 24 h. Then, 6 μL of MTT (5 mg/mL) was added, and the cells were cultured for an additional 4 h. Afterward, 200 μL of DMSO was added to dissolve the formazan crystals by gently pipetting up and down. The absorbance at 570 nm (OD570) was measured using a microplate reader (Infinite 200Pro, Tecan), with deionized water serving as the control. The cell viability was calculated with Equation (2): (2) [(OD570 of sample)/OD570 of control]×100%

Data set [4] in a line: pH of carboxylic acid mixed with PBS buffer, without tyrosinase. The conditions noted are these: in PBS buffer, absence of tyrosinase. Format: physicochemical.
For another data set, the system named is B16-F10 cells. In words: Melanin content analysis of B16-F10 cells (α-MSH stimulated). The following applies: Mus musculus, B16-F10, α-MSH 1 μM, 48 h, read-out: melanin inhibition rate; for inhibition at 6000 µM: 6 mM. Format: cell-based. Here is the method:
A 900 μL cell suspension with an approximate density of 50% confluence was seeded into a 12-well plate and cultured for 24 h at 37 °C with 5% CO2. Subsequently, various concentrations of carboxylic acids were added, and the cells were further incubated for 1 h. Then, 1 μL of 1 mM α-melanocyte-stimulating hormone (α-MSH) solution was added to achieve a final concentration of 1 μM, and the cells were cultured for an additional 48 h at 37 °C with 5% CO2 to stimulate melanogenesis. Afterward, the cells were digested with trypsin, collected by centrifugation at 10,000 rpm for 5 min (Andreas Hettich GmbH & Co., KG, Tuttlingen, Germany), and the supernatant was discarded. Each tube was treated with 200 μL of 1 M NaOH solution and incubated in a water bath at 60 °C for 20 min. Following incubation, the samples were vortexed to ensure homogeneity, and 200 μL of each sample was transferred to a 96-well plate. The absorbance at 405 nm (OD405) was measured using a microplate reader (Infinite 200Pro, Tecan), and the data were recorded to calculate the melanin content, with deionized water serving as the control. The reduction in melanin content was calculated with Equation (3):(3) [(OD405 of control−OD405 of sample)/OD405 of control]×100%

The target of data set [5] is T1, tyrosinase. In words: Fluorescence spectra analysis of tyrosinase. Format: binding, mushroom. The conditions noted are these: 6 mM; excitation 280 nm. Here is the method:
Carboxylic acid solutions at various concentrations were mixed with PBS buffer and tyrosinase (final concentration of 60 U/mL) and then transferred to a black 96-well plate. Fluorescence analysis was conducted using a microplate reader (Infinite 200Pro, Tecan).

For data set [6] the following is noted: cited from earlier work.
In data set [7] the target is tyrosinase from BioVision, Inc. (claimed to be of human origin). Set-up: method as in PMID 38909081. The conditions noted are these: cited from earlier work.
Another data set relates to rats. The conditions noted are these: cited from earlier work.
The subject of another data set is tyrosinase and Tyrp 1/2. The conditions noted are these: Western blot; 300 and 500 μg/mL, 48 h intervals during 5 d culture; cited from earlier work.
For a further data set, the system named is guinea pigs. The following applies: cited from earlier work.

As a reminder, the inhibition is the change of the read-out against control, counted positive when it falls. The Ki is the dissociation constant of the complex between target and ligand, obtained from inhibition or displacement. In general, IC50 refers to the point on the concentration scale where inhibition reaches its midpoint. By viability is commonly meant a read-out of living cells in per cent, often relative to untreated cells. Lower therefore signals a greater loss of cells.

Values after ≈ are worked out from the molar mass of the structure shown. Like-named read-outs stand apart in the source and are kept apart here. Where only a bound is given, the exact number is not on record here.

mushroom tyrosinase, sequence (C7FF04 2-392): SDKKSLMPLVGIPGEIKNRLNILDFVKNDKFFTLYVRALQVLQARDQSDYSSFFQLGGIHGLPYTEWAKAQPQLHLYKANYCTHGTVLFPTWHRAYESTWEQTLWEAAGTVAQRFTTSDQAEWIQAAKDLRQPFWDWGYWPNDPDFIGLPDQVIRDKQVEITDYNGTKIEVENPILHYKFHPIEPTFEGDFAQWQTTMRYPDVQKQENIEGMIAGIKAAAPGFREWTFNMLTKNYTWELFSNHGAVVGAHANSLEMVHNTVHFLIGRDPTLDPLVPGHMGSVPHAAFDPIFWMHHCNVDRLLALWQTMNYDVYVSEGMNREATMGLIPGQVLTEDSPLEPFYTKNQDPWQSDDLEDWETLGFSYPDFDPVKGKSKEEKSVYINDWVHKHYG
T1 sequence (C7FF04 1-392 limits assumed): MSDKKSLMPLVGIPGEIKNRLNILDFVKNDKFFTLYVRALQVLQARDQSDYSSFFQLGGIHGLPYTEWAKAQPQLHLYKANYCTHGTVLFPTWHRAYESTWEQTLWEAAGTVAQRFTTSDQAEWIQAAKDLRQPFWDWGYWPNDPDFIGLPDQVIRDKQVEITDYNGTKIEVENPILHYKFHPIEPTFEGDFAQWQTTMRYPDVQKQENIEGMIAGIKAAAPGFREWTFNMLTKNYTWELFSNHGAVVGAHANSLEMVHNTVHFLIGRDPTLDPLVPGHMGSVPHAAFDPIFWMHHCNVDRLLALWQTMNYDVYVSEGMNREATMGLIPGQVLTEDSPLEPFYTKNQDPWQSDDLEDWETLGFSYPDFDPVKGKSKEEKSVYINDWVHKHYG

For `O=C(O)[C@@H]1CCC(O)=N1` [L-pyroglutamic acid], the inhibition at 6000 µM at mushroom tyrosinase (6 mM) is greater than 80%. For the same molecule, at tyrosinase [1], the inhibitory constant (Ki) was found to be 1950 µM and the inhibition mechanism entry is recorded as “competitive inhibition”. For the same molecule, in [2], the “L-DOPA auto-oxidation inhibition rate” value is given as “exceeding 80%” and the IC50 is 660 µM. The molecule also showed a viability at 24 h, 6 mM in [3] greater than 90%. In addition, in [4] (6 mM), the pH stood at 3.7. The inhibition at 6000 µM with B16-F10 cells turned out to be 27.8%. For the same molecule, on tyrosinase [5], the “decrease of tyrosinase fluorescence intensity” value is on record as 48.6%.
In the case of `O=C1O[C@H]([C@@H](O)CO)C(O)=C1O` [ascorbic acid], in [6], the “IC50 DOPA auto-oxidation inhibition” value is given as 989.6 µg/mL (≈ 5.62 mM).
For the molecule `O=c1cc(CO)occ1O` [kojic acid, reference compound], the IC50 in [7] is 9.27 µM. The “IC50 DOPA auto-oxidation inhibition” value in data set [6] is 418.5 µg/mL (≈ 2.94 mM).
As for `CC(O)C(=O)O` (centres unmarked) [lactic acid], the values for the inhibition at 6000 µM on mushroom tyrosinase and in the data set on B16-F10 cells were 47% and 14.1%, respectively. For the same molecule, the figures for the inhibition at 12000 µM at mushroom tyrosinase and in the data set on B16-F10 cells (12 mM) were 89% and 29.4%, respectively. Moreover, the “oral LD50” value with rats is given as 3730 mg/kg; in the data set with guinea pigs, 1810 mg/kg. For the same molecule, the Ki on tyrosinase [1] (GraphPad Prism, mixed-model or competitive model, read-out: inhibition constant (Ki)) is 2710 µM. Also, at tyrosinase [1], the inhibition mechanism entry was “mixed-type inhibition”. Further, the “inhibition constant (KIS) for enzyme–substrate complex” value at tyrosinase [1] (mixed-type inhibitors) is listed as 17.032 mM. Besides, the “regulatory effect on melanogenesis-related proteins (tyrosinase and Tyrp 1/2)” value with tyrosinase and Tyrp 1/2 is “no significant regulatory effects”. Further, the “L-DOPA auto-oxidation inhibition rate” value in data set [2] is given as “exceeding 80%”. Also, in [2], the 50% inhibitory concentration (IC50) is 570 µM. This molecule gave a viability at 24 h, 6 mM in [3] greater than 90%. Further, the viability at 24 h, 12 mM in [3] (12 mM) was determined as 97%. Also, the values for the pH entry in data set [4] (6 mM) and in data set [4] (12 mM) were “around 6” and 3.6, respectively. Also, at tyrosinase [5], the “decrease of tyrosinase fluorescence intensity” value was found to be 45.0%.

The values above are taken from PMC11990924, “Inhibition of Tyrosinase and Melanogenesis by Carboxylic Acids: Mechanistic Insights and Safety Evaluation” (Molecules, 2025).
